The values that follow come from ChEMBL document CHEMBL2440027, “Further SAR studies on bicyclic basic merbarone analogues as potent antiproliferative agents” (Bioorg Med Chem, 2013).

The subject of one test is MT4. The test is described as follows: Cytotoxicity against human MT4 cells. The format is functional, cell-based.
In the next test the test system is MCF7. Description: Cytotoxicity against human MCF7 cells. The format is functional, cell-based.
In a further test the test system is HeLa. The test is described as follows: Cytotoxicity against human HeLa cells. It is filed as functional, cell-based.
Test [1] has as its target DNA topoisomerase 2-alpha (Homo sapiens, UniProt P11388). The test is described as follows: Inhibition of human topoisomerase 2alpha-mediated relaxation of supercoiled pBR322 after 1 hr by ethidium bromide staining.

SMILES strings stand for the structures.

Sequence of DNA topoisomerase 2-alpha (P11388 whole entry): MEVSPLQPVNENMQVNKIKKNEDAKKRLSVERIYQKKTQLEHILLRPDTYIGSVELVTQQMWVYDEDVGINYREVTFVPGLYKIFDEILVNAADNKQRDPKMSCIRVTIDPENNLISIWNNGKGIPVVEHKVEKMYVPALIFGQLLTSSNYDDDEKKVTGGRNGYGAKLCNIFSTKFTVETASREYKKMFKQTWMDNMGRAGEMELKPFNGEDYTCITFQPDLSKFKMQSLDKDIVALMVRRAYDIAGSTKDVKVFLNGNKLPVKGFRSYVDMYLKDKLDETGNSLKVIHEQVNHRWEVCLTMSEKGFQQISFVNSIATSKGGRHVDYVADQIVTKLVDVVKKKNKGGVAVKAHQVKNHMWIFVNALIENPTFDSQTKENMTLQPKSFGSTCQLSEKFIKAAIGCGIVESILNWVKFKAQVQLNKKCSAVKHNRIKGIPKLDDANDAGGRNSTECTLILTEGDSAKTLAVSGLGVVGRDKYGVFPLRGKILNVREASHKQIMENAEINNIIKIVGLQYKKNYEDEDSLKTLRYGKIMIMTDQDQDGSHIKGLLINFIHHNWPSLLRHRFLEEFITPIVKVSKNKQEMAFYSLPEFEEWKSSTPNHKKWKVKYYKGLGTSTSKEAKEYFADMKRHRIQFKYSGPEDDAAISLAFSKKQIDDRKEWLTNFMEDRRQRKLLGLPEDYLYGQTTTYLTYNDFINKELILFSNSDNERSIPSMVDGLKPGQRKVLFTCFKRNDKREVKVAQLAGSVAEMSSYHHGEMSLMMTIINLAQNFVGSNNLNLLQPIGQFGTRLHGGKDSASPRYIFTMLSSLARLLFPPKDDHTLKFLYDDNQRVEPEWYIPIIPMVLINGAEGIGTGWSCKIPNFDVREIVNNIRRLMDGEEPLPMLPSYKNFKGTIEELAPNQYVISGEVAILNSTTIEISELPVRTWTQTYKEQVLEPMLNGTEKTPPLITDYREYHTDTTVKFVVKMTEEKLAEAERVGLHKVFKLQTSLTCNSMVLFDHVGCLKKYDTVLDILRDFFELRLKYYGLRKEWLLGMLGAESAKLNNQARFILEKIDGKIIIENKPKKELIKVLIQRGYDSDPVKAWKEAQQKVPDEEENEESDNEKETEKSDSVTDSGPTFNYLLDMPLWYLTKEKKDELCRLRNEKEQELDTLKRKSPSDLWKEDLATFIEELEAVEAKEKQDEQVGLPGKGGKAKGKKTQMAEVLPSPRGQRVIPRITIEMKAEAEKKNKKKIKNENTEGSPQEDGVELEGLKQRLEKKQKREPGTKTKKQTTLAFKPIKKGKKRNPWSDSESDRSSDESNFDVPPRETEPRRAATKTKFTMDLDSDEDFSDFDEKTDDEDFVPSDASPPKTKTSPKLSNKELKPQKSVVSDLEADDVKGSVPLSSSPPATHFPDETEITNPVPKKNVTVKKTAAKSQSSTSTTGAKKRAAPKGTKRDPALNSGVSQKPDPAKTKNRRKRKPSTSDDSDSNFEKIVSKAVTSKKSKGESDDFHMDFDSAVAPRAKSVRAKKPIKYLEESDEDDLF

For the compound `CCN(CC)CCSc1nc2c(c(=N)n1-c1ccccc1)c(=S)n(-c1ccccc1)c(=S)n2-c1ccccc1`, the IC50 (usually the midpoint of a concentration-inhibition curve) with MT4 was determined as 3.3 µM.

Consider `CN1CCN(c2nc3c(c(=N)n2-c2ccccc2)c(=S)n(-c2ccccc2)c(=S)n3-c2ccccc2)CC1`, for which the half-maximal inhibitory concentration (IC50) with MCF7 was over 50 µM; with HeLa (Homo sapiens, HeLa), over 50 µM; in the test on MT4 it was over 100 µM.

For the compound `N=c1c2c(=S)n(-c3ccccc3)c(=S)n(-c3ccccc3)c2nc(NNc2ccccc2)n1-c1ccccc1`, the half-maximal inhibitory concentration (IC50) in the test with MT4 is over 100 µM.

Consider `CCN(CC)CCNc1nc2c(c(=N)n1-c1ccccc1)c(=S)n(-c1ccccc1)c(=S)n2-c1ccccc1`, for which the IC50 was 11.1 µM in the test with MCF7; over 100 µM in test [1]; 16.9 µM in the test on HeLa (Homo sapiens, HeLa); 2.5 µM in the test on MT4.

In the test on MT4, `N=c1c2c(=S)n(-c3ccccc3)c(=S)n(-c3ccccc3)c2nc(SCCN2CCCCC2)n1-c1ccccc1` gave an IC50 of 3.6 µM.

Take `N=c1c2c(=S)n(-c3ccccc3)c(=S)n(-c3ccccc3)c2nc(NCCc2ccc(Cl)cc2)n1-c1ccccc1` [listing 1 of 2 here]: the 50% inhibitory concentration (IC50) with MCF7 came out at 25.6 µM; in test [1], 2 µM; with HeLa (Homo sapiens, HeLa) it was 5.6 µM.

With `N=c1c2c(=S)n(-c3ccccc3)c(=S)n(-c3ccccc3)c2nc(NCc2cccnc2)n1-c1ccccc1` [listing 1 of 2 here], the half-inhibitory concentration (IC50) came to 24.3 µM with MCF7; 3 µM in test [1]; 14.6 µM with HeLa (Homo sapiens, HeLa).

Take `CN1CCN(CCCNc2nc3c(c(=N)n2-c2ccccc2)c(=S)n(-c2ccccc2)c(=S)n3-c2ccccc2)CC1` [listing 1 of 2 here]: the IC50 in the test with MCF7 is 5.7 µM; in test [1], over 35 µM; with HeLa (Homo sapiens, HeLa), 8.5 µM.

In the case of `N=c1c2c(=S)n(-c3ccccc3)c(=S)n(-c3ccccc3)c2nc(NCCN2CCCCC2)n1-c1ccccc1` [listing 1 of 2 here], the IC50 was found to be 26.7 µM with MCF7; 3 µM in test [1]; 5.2 µM with HeLa (Homo sapiens, HeLa).

In the case of `CCCCN(CCCC)CCCNc1nc2c(c(=N)n1-c1ccccc1)c(=S)n(-c1ccccc1)c(=S)n2-c1ccccc1`, the concentration for half-maximal inhibition (IC50) in the test with MCF7 was under 1 µM; in test [1], over 32 µM; with HeLa (Homo sapiens, HeLa) it was 2 µM.

`CN(C)CCCNc1nc2c(c(=N)n1-c1ccccc1)c(=S)n(-c1ccccc1)c(=S)n2-c1ccccc1`: the IC50 in the test on MCF7 was 5.5 µM; in test [1], over 100 µM; in the test with HeLa (Homo sapiens, HeLa), 7.8 µM; in the test on MT4, 1.7 µM.

For `N=c1c2c(=S)n(-c3ccccc3)c(=S)n(-c3ccccc3)c2nc(NCCN2CCCCC2)n1-c1ccccc1` [listing 2 of 2 here], the half-inhibitory concentration (IC50) with MT4 came out at 1.7 µM.

Take `CN1CCN(CCCNc2nc3c(c(=N)n2-c2ccccc2)c(=S)n(-c2ccccc2)c(=S)n3-c2ccccc2)CC1` [listing 2 of 2 here]: in the test on MT4, half-maximal inhibition (IC50) required 2 µM.

Consider `N=c1c2c(=S)n(-c3ccccc3)c(=S)n(-c3ccccc3)c2nc(NCc2ccccn2)n1-c1ccccc1`, for which the IC50 was over 50 µM with MCF7; over 100 µM in test [1]; over 50 µM in the test with HeLa (Homo sapiens, HeLa); 7 µM in the test on MT4.

Consider `N=c1c2c(=S)n(-c3ccccc3)c(=S)n(-c3ccccc3)c2nc(NCc2cccnc2)n1-c1ccccc1` [listing 2 of 2 here], for which the IC50 in test [1] was 3 µM; with HeLa (hela), 12.6 µM; in the test with MT4, over 100 µM.

For the compound `N=c1c2c(=S)n(-c3ccccc3)c(=S)n(-c3ccccc3)c2nc(NCCc2ccc(Cl)cc2)n1-c1ccccc1` [listing 2 of 2 here], the values for the half-maximal inhibitory concentration (IC50) (in test [1]; in the test on HeLa (hela); with MT4) were 2 µM, 5.9 µM and 2.4 µM, respectively.

`N=c1c2c(=S)n(-c3ccccc3)c(=S)n(-c3ccccc3)c2nc(NCCc2ccccn2)n1-c1ccccc1`: the IC50 with MCF7 was 17.3 µM; in test [1], over 100 µM; in the test with HeLa (Homo sapiens, HeLa), 10.5 µM; in the test with MT4, 8 µM.

`N=c1c2c(=S)n(-c3ccccc3)c(=S)n(-c3ccccc3)c2nc(NCCc2ccncc2)n1-c1ccccc1`: the IC50 in the test with MCF7 is 17.8 µM; in test [1], over 100 µM; with HeLa (Homo sapiens, HeLa) it was 15.4 µM; in the test with MT4 it was 16 µM.

For the compound `N=c1c2c(=S)n(-c3ccccc3)c(=S)n(-c3ccccc3)c2nc(NCCCn2ccnc2)n1-c1ccccc1`, the IC50 was over 100 µM in the test with MCF7; over 100 µM with HeLa (Homo sapiens, HeLa); 8 µM with MT4.

Regarding `O=C1NC(=S)NC(=O)C1C(=O)Nc1ccccc1` [MERBARONE], the IC50 with MCF7 was 61.6 µM; in test [1], 32 µM; with HeLa (Homo sapiens, HeLa), 43.8 µM; in the test on MT4, 12 µM.
